Reference: patent EP0597303A2, “Cephalosporin derivatives” (priority 1992, dated 1994)
Where a name gives a salt, the structure may show the parent alone. Read-outs that look alike come from different tables or passages of the source.

How the values were obtained:
Test in all cases: MIC, Agar (Mueller Hinton) Dilution Method
Format in all cases: cell-based
Bacillus megaterium 164 = settings: Priestia megaterium
Excerpt: (§1) The in vitro activity of the compounds of formula I of the present invention as measured by the Minimum Inhibitory Concentration (MIC) in micrograms/ml utilizing the Agar (Mueller Hinton) Dilution Method against a variety of Gram-positive and Gram-negative organisms, is set forth in Table 1.

Cit. freundii EL-1408 = settings: Citrobacter freundii, EL1408
Excerpt: as §1

[1] = test system: Citrobacter freundii BS-16; settings: BS16
Excerpt: as §1

E. coli 1269B = settings: Escherichia coli, Gram Negative
Excerpt: as §1

E. coli 1573E = settings: Escherichia coli
Excerpt: as §1

E. coli 1894 E = settings: Escherichia coli
Excerpt: as §1

E. coli 2721B = settings: Escherichia coli
Excerpt: as §1

E. coli ATCC 25922 = settings: Escherichia coli, ATCC25922
Excerpt: as §1

E. coli B = settings: Escherichia coli, Gram Negative
Excerpt: as §1

E. coli Leo HA2 = settings: Escherichia coli, LEOHA2, Gram Negative
Excerpt: as §1

E. coli TEM-1a = settings: Escherichia coli, TEM1A
Excerpt: as §1

Ent. faecalis ATCC 29212 = settings: Enterococcus faecalis, ATCC29212, Gram Positive and Others
Excerpt: as §1

Enter. cloacae 4946 = settings: Enterobacter cloacae, Gram Negative
Excerpt: as §1

Enter. cloacae 5699 = settings: Enterobacter cloacae, Gram Negative
Excerpt: as §1

Klebsiella pneumoniae A = settings: Gram Negative
Excerpt: as §1

Mycobacterium phlei 78 = settings: Mycolicibacterium phlei
Excerpt: as §1

Prot. mirabilis 190 = settings: Proteus mirabilis
Excerpt: as §1

Prot. mirabilis 2 = settings: Proteus mirabilis
Excerpt: as §1

Prot. mirabilis 620A = settings: Proteus mirabilis
Excerpt: as §1

Prov. rettgeri ATCC 9250 = settings: Providencia rettgeri, ATCC9250, Gram Negative
Excerpt: as §1

Ps. aeruginosa 1937E = settings: Pseudomonas aeruginosa, Gram Negative
Excerpt: as §1

Ps. aeruginosa 765 = settings: Pseudomonas aeruginosa, Gram Negative
Excerpt: as §1

Ps. aeruginosa 8780 = settings: Pseudomonas aeruginosa, Gram Negative
Excerpt: as §1

[2] = test system: Ps. aeruginosa ATCC 27853; settings: Pseudomonas aeruginosa, ATCC27853, Gram Negative
Excerpt: as §1

[3] = test system: Pseudomonas aeruginosa 5712; settings: Gram Negative
Excerpt: as §1

Ser. marcescens 1071 = settings: Serratia marcescens
Excerpt: as §1

Ser. sp. 101 = test system: Ser. sp. 101
Excerpt: as §1

Staph. aureus 1059B = settings: Staphylococcus aureus
Excerpt: as §1

Staph. aureus 3037B = settings: Staphylococcus aureus
Excerpt: as §1

Staph. aureus 404 = settings: Staphylococcus aureus
Excerpt: as §1

Staph. aureus 67 = settings: Staphylococcus aureus
Excerpt: as §1

Staph. aureus 753 = settings: Staphylococcus aureus
Excerpt: as §1

Staph. aureus 82 = settings: Staphylococcus aureus
Excerpt: as §1

Staph. aureus 95 = settings: Staphylococcus aureus
Excerpt: as §1

Staph. aureus ATCC 25923 = settings: Staphylococcus aureus, ATCC25923, Gram Positive and Others
Excerpt: as §1

Staph. aureus ATCC 29213 = settings: Staphylococcus aureus, ATCC29213
Excerpt: as §1

Staph. aureus Evans = settings: Staphylococcus aureus
Excerpt: as §1

[4] = test system: Streptococcus pneumoniae 6303
Excerpt: as §1

[5] = Bacillus megaterium 164, Gram Positive and Others, read-out: MIC
[6] = Cit. freundii EL-1408, Gram Negative, read-out: MIC
[7] = E. coli 1573E, Gram Negative, read-out: MIC
[8] = E. coli 1894 E, Gram Negative, read-out: MIC
[9] = E. coli ATCC 25922, Gram Negative, read-out: MIC
[10] = Prot. mirabilis 190, Gram Negative, read-out: MIC
[11] = Staph. aureus 67, methicillin-resistant, Gram Positive and Others, read-out: MIC
[12] = Staph. aureus Evans, Gram Positive and Others, read-out: MIC
[13] = Citrobacter freundii BS-16, constitutive ß-lactamase producer, Gram Negative, read-out: MIC
[14] = E. coli 2721B, Gram Negative, read-out: MIC
[15] = Mycobacterium phlei 78, Gram Positive and Others, read-out: MIC
[16] = Prot. mirabilis 2, Gram Negative, read-out: MIC
[17] = Prot. mirabilis 620A, Gram Negative, read-out: MIC
[18] = Ser. sp. 101, Gram Negative, read-out: MIC
[19] = Staph. aureus 3037B, Gram Positive and Others, read-out: MIC
[20] = Staph. aureus 753, methicillin-resistant, Gram Positive and Others, read-out: MIC
[21] = Staph. aureus 82, Gram Positive and Others, read-out: MIC
[22] = Staph. aureus ATCC 29213, Gram Positive and Others, read-out: MIC
[23] = Ser. marcescens 1071, Gram Negative, read-out: MIC
[24] = Staph. aureus 1059B, Gram Positive and Others, read-out: MIC
[25] = Staph. aureus 404, Gram Positive and Others, read-out: MIC
[26] = Staph. aureus 95, Gram Positive and Others, read-out: MIC

Measured: MIC

N#CCC(=O)N[C@@H]1C(=O)N2C(C(=O)O)=C(COC(=O)N[C@@H]3CCN(c4c(F)cc5c(=O)c(C(=O)O)cn(C6CC6)c5c4F)C3)CS[C@H]12 [Formula Ibb, [6R-[3(R^*), 6 alpha, 7 beta]]-3-[[[[[1-(3-Carboxy-1-cyclopropyl-6,8-difluoro-1,4-dihydro-4-oxo-7-quinolinyl-3-pyrrolidinyi]amino]carbonyl]oxy]methyL]-7-[(cyanoacetyl)amino]-8-oxo-5-thia-1-azabicyclo[4.2.0]oct-2-ene-2-carboxylic acid monosodium salt]
2 µg/mL: Ent. faecalis ATCC 29212 | Ps. aeruginosa 765 | Ps. aeruginosa 8780 | [2]
≤ 0.0156 µg/mL: E. coli Leo HA2
0.5 µg/mL: Cit. freundii EL-1408; [6] | Staph. aureus 67; [11]
0.0625 µg/mL: Bacillus megaterium 164; [5] | E. coli 1269B | E. coli 1573E; [7] | E. coli 1894 E; [8] | E. coli ATCC 25922; [9] | Prot. mirabilis 190; [10] | Staph. aureus Evans; [12] | [4]; Streptococcus pneumoniae 6303, Gram Positive and Others, read-out: MIC
0.25 µg/mL: Enter. cloacae 5699 | Klebsiella pneumoniae A | Prov. rettgeri ATCC 9250 | Staph. aureus ATCC 25923
0.125 µg/mL: E. coli TEM-1a | Enter. cloacae 4946 | Mycobacterium phlei 78; 78 | Prot. mirabilis 2; 2 | Prot. mirabilis 620A; 620A | Ser. marcescens 1071; 1071 | Ser. sp. 101 | Staph. aureus 1059B; 1059B | Staph. aureus 3037B; 3037B | Staph. aureus 404; 404 | Staph. aureus 753; 753 | Staph. aureus 82; 82 | Staph. aureus 95; 95 | Staph. aureus ATCC 29213
0.0313 µg/mL: [1]; Citrobacter freundii | E. coli 2721B; 2721B | E. coli B
4 µg/mL: [3]
1 µg/mL: Ps. aeruginosa 1937E

N#CCC(=O)N[C@@H]1C(=O)N2C(C(=O)O)=C(COC(=O)N[C@H]3CCN(c4c(F)cc5c(=O)c(C(=O)O)cn(C6CC6)c5c4F)C3)CS[C@H]12 [Formula Iba, [6R-[3(S^*), 6 alpha, 7 beta]]-3-[[[[[1-(3-Carboxy-1-cyclopropyl-6,8-difluoro-1,4-dihydro-4-oxo-7-quinolinyl-3-pyrrolidinyl]-amino]carbonyl]oxy]methyl]-7-[(cyanoacetyl)amino]-8-oxo-5-thia 1-azabicyclo[4.2.0]oct-2-ene-2-carboxylic acid monosodium salt]
0.5 µg/mL: Ent. faecalis ATCC 29212 | Ps. aeruginosa 765 | Ps. aeruginosa 8780
0.0625 µg/mL: Enter. cloacae 5699 | Klebsiella pneumoniae A | Mycobacterium phlei 78; [15] | Prot. mirabilis 2; [16] | Prot. mirabilis 620A; [17] | Prov. rettgeri ATCC 9250 | Ser. sp. 101; [18] | Staph. aureus 3037B; [19] | Staph. aureus 753; [20] | Staph. aureus 82; [21] | Staph. aureus ATCC 25923 | Staph. aureus ATCC 29213; [22]
0.25 µg/mL: Ps. aeruginosa 1937E
0.0313 µg/mL: Bacillus megaterium 164; 164 | E. coli ATCC 25922 | E. coli TEM-1a | Enter. cloacae 4946 | Prot. mirabilis 190; 190 | Ser. marcescens 1071; 1071 | Staph. aureus 1059B; 1059B | Staph. aureus 404; 404 | Staph. aureus 95; 95 | Staph. aureus Evans | [4]; Streptococcus pneumoniae, 6303
1 µg/mL: [2]
≤ 0.0156 µg/mL: [1]; [13] | E. coli 1269B | E. coli 1573E; [7] | E. coli 1894 E; [8] | E. coli 2721B; [14] | E. coli B | E. coli Leo HA2
2 µg/mL: [3]
0.125 µg/mL: Cit. freundii EL-1408 | Staph. aureus 67; 67

O=C(Cc1cccs1)N[C@@H]1C(=O)N2C(C(=O)O)=C(COC(=O)N3CCN(c4c(F)cc5c(=O)c(C(=O)O)cn(C6CC6)c5c4F)CC3)CS[C@H]12 [Formula Ia, [6R,7R]-3-[[[[4-(3-Carboxy-1-cyclopropyl-6,8-difluoro-1,4-dihydro-4-oxo-7-quinolinyl)-1-piperazinyl]carbonyl]-oxy]-methyl]-8-oxo-7-[(2-thienylacetyl)amino]-5-thia-1-azabicyclo-[4.2.0]oct-2-ene-2-carboxylic acid]
0.0625 µg/mL: E. coli 1573E; 1573E | E. coli 1894 E; 1894E | E. coli ATCC 25922 | E. coli TEM-1a | Enter. cloacae 4946 | Prot. mirabilis 620A; 620A
2 µg/mL: Ps. aeruginosa 765 | [3]
1 µg/mL: Ps. aeruginosa 1937E | [2] | Staph. aureus 3037B; [19] | Staph. aureus 67; [11]
≤ 0.0156 µg/mL: E. coli Leo HA2
0.125 µg/mL: Bacillus megaterium 164; [5] | Enter. cloacae 5699 | Mycobacterium phlei 78; [15] | Prot. mirabilis 190; [10] | Ser. marcescens 1071; [23] | Staph. aureus 82; [21]
0.5 µg/mL: Ser. sp. 101; [18] | Staph. aureus 404; [25] | Staph. aureus 753; [20] | Staph. aureus 95; [26] | Staph. aureus ATCC 29213; [22] | Staph. aureus Evans; [12]
0.0313 µg/mL: [1]; [13] | E. coli 1269B | E. coli 2721B; [14] | E. coli B
4 µg/mL: Ent. faecalis ATCC 29212
0.25 µg/mL: Cit. freundii EL-1408; [6] | Klebsiella pneumoniae A | Prot. mirabilis 2; [16] | Prov. rettgeri ATCC 9250 | Staph. aureus 1059B; [24] | Staph. aureus ATCC 25923

N#CCC(=O)N[C@@H]1C(=O)N2C(C(=O)O)=C(COC(=O)NC3CCN(c4c(F)cc5c(=O)c(C(=O)O)cn(C6CC6)c5c4F)C3)CS[C@H]12 (stereo partly drawn) [Formula Ib, [6R,7R]-3-[[[[[1-(3-Carboxy-1-cyclopropyl-6,8-difluoro-1,4-dihydro-4-oxo-7-quinolinyl-3-[R,S]-pyrrolidinyl]-amino]carbonyl]oxy]methyl]-7-[(cyanoacetyl)amino]-8-oxo-5-thia-1-azabicyclo[4.2.0]oct-2-ene-2-carboxyiic acid monosodium salt]
0.25 µg/mL: Cit. freundii EL-1408; [6] | Enter. cloacae 5699 | Klebsiella pneumoniae A | Mycobacterium phlei 78; [15] | Prot. mirabilis 190; [10] | Prot. mirabilis 2; [16] | Prot. mirabilis 620A; [17] | Prov. rettgeri ATCC 9250 | Ser. marcescens 1071; [23] | Ser. sp. 101; [18] | Staph. aureus 1059B; [24] | Staph. aureus 3037B; [19] | Staph. aureus 404; [25] | Staph. aureus 67; [11] | Staph. aureus 753; [20] | Staph. aureus 95; [26] | Staph. aureus ATCC 25923 | Staph. aureus ATCC 29213; [22]
1 µg/mL: Ps. aeruginosa 765 | Ps. aeruginosa 8780 | [2]
0.0625 µg/mL: Bacillus megaterium 164; [5] | [1]; [13] | E. coli 1269B | E. coli 1573E; [7] | E. coli 1894 E; [8] | E. coli 2721B; [14] | E. coli ATCC 25922; [9] | E. coli B
0.5 µg/mL: Ps. aeruginosa 1937E
0.125 µg/mL: E. coli TEM-1a | Enter. cloacae 4946 | Staph. aureus 82; 82 | Staph. aureus Evans | [4]; Streptococcus pneumoniae, 6303
2 µg/mL: Ent. faecalis ATCC 29212 | [3]
0.0156 µg/mL: E. coli Leo HA2
